Measured values published in PMC10000267, “ALA‐A2 Is a Novel Anticancer Peptide Inspired by Alpha‐Lactalbumin: A Discovery from a Computational Peptide Library, In Silico Anticancer Peptide Screening and In Vitro Experimental Validation” (Global Challenges, 2023).
Residues, ends and D or L forms follow the SMILES beside them.

What was measured:
[1] = tested on: A549 lung adenocarcinoma cells; experiment: In vitro cancer cytotoxicity (MTT assay); assay type: cell-based, human; settings: 24 h
Description: (§1) All cell lines were obtained from the American Type Culture Collection (ATCC, Manassas, VA, USA). The A549 lung adenocarcinoma (ATCC CCL‐185TM), MDA‐MB‐231 triple‐negative breast adenocarcinoma (ATCC HTB‐26TM), and SH‐SY5Y neuroblastoma (ATCC CRL‐2266TM) cell lines were cultured in Dulbecco's Modified Eagle's Medium (DMEM)‐high glucose (Gibco, Thermo Fisher Scientific, MA, USA). HT29 colon adenocarcinoma (ATCC HTB‐38) cell lines were maintained in DMEM/Nutrient Mixture F‐12 (Gibco). K562 chronic myeloid leukemia (ATCC CRL‐3344) were grown in Roswell Park Memorial Institute Medium 1640 (Gibco). The cells were cultured in medium supplemented with 10% fetal bovine serum (Gibco) and 1× penicillin/streptomycin (Gibco) and incubated in a 5% CO2 incubator with saturated humidity.
(§2) The protocol previously described by Chiangjong et al. and Baindara et al.^[ [5], [29] ^] was modified for use in determining the cytotoxicity of peptides on the various cancer types. Adherent cells were seeded at 1 × 10^4 cells/well into a 96‐well plate 24 h prior to replacing the media containing the peptide of interest. Suspended cells were seeded at 1 × 10^4 cells/well in the media containing the peptide of interest. Five human cell lines, including lung cancer (A549), colon cancer (HT29), breast cancer (MDA‐MB‐231), neuroblastoma (SH‐SY5Y), and leukemia (K562) cells, were treated with the culture media containing the peptides at 200 µM for 24 h. Cell viability was then determined using Cell Proliferation Kit I, MTT (Roche Diagnostics GmbH, Mannheim, Germany): MTT labeling reagent (10 µL) was added to each well and incubated at 37 °C in a 5% CO2 atmosphere for 4 h. After incubation, 100 µL solubilizing solution was added to each well and incubated at 37 °C in 5% CO2 overnight. The absorbance at 570 nm (A 570) was measured for each well. The percentage of cell viability was calculated as: (1) % Cell Viability=[A570 of treated cells − A570 of media/A570 of untreated cells−A570 of media] × 100
(§3) To evaluate dose‐dependency, ≈1 × 10^4 cells/well were cultured in media containing ALA‐A2 at 0, 6.25, 12.5, 25, 50, 100, 200, and 400 µM in a 96‐well plate for 24 h. Cell viability was determined by the MTT assay, as above.

[2] = tested on: HT29 colon adenocarcinoma cells; experiment: In vitro cancer cytotoxicity (MTT assay); assay type: cell-based, human; settings: 24 h
Description: as §1, §2, §3

[3] = tested on: K562 leukemia cells; experiment: In vitro cancer cytotoxicity (MTT assay); assay type: cell-based, human; settings: K562, peptide 200 µM, 24 h
Description: as §1, §2

[4] = tested on: MDA‐MB‐231 breast cancer cells; experiment: In vitro cancer cytotoxicity (MTT assay); assay type: cell-based, human; settings: MDA‐MB‐231, peptide 200 µM, 24 h
Description: as §1, §2

[5] = tested on: SH‐SY5Y neuroblastoma cells; experiment: In vitro cancer cytotoxicity (MTT assay); assay type: cell-based, human; settings: peptide 200 µM, 24 h
Description: as §1, §2

[6] = tested on: Human red blood cells; experiment: Ex vivo hemolysis assay (RBC lysis assay); assay type: cell-based; settings: ≈0.8% v/v human RBC suspension in 0.9% normal saline, peptide 200 µM, 1 h, room temperature, absorbance 415 nm, relative to 1% Triton X‐100; blood of three healthy individuals, mean ± SD
Description: The hemolysis assay was as described previously.^[ [30] ^] After informed consent, peripheral blood (3 mL) was collected from three healthy individuals into heparin tubes (BD Biosciences, NJ, USA). The specimen was centrifuged at 2000 × g for 5 min at room temperature, and the plasma was discarded. The RBCs were washed twice with PBS and then resuspended in 0.9% normal saline solution at a volume equivalent to that of the original plasma. Approximately 0.8% v/v RBC suspension was incubated with the peptides at 200 µM (100 µL final volume) in a U‐bottom 96‐well plate at room temperature for 1 h with agitation. 1% v/v Triton X‐100 was applied as a positive control. The untreated condition served as the blank control. After 1 h incubation, the supernatants were collected by centrifuging at 2000 × g for 5 min at room temperature. The absorbance of hemoglobin in the supernatant was measured at 415 nm. The hemolysis percentage was calculated as follows: (2) % Hemolysis = [sample absorbance−blank control/positive control−blank control] × 100

[7] = tested on: A549 cells; experiment: Autophagy activity assay; assay type: cell-based, human; settings: A549, 200 µM, 24 h; autophagosome/autophagolysosome signal normalised to nuclear signal; three biological replicates
Description: A549 cells (1 × 10^4 cells/well in a 96‐well plate) were treated with 200 µM ALA‐A2. Treated cells were maintained for 24 h before determining autophagy activity using an autophagy assay kit (ab139484, Abcam, Milpitas, CA). To prepare for the staining, the media was removed, and the cells were washed once with 1× assay buffer. The dual color detection solution was added to the wells and incubated for 30 min. The cells were washed and 1× assay buffer added to each well. The nuclear signal was excitation of 340 nm and […], whereas autophagosomes and autophagolysosomes were detected by excitation of 480 nm and emission of 530 nm. Autophagy activity was calculated by normalizing the autophagosome/autophagolysosome signal to the nuclear signal. Rapamycin (2 µM), a known autophagy inducer, was the positive control.^[ [33] ^] This experiment was performed in three biological replicates.

Molecule CC(C)C[C@H](NC(=O)[C@@H](N)CCCCN)C(=O)N[C@@H](Cc1c[nH]c2ccccc12)C(=O)N[C@@H](CS)C(=O)N[C@@H](CCCCN)C(=O)N[C@@H](CO)C(=O)N[C@@H](CO)C(=O)N[C@@H](CCC(N)=O)C(=O)N[C@H](C(=O)N1CCC[C@H]1C(=O)N[C@@H](CCC(N)=O)C(=O)N[C@@H](CO)C(=O)N[C@@H](CCCNC(=N)N)C(=O)O)C(C)C [ALA‐A2] (H-KLWCKSSQVPQSR-OH) has a cell viability ([1]; A549, peptide 200 µM, 37 °C, A570, mean ± SD, three biological replicates) of 59.7 ± 1.1 % cell viability, an IC50 ([1]; A549, twofold serial dilutions 0 to 400 µM) of ~300 µM and a cell viability ([2]; HT29, peptide 200 µM, 37 °C, A570, mean ± SD, three biological replicates) of 55.3 ± 2.7 % cell viability. The IC50 ([2]; HT29, twofold serial dilutions 0 to 400 µM, extrapolated beyond the tested range) was > 1000 µM, the “anticancer effect (in words)” value [3] was “did not affect” and the “anticancer effect (in words)” value [4] was “did not affect”. For the same molecule, the “anticancer effect (in words)” value [5] was “did not affect”, the percent hemolysis [6] was 7.8% ± 10.2% and the autophagic activity [7] was 1.5 fold of untreated cells.
